Values quoted from earlier work, collected in patent US20240050531A1, “A METHOD FOR REVERSING AGING BRAIN FUNCTIONAL DECLINE” (THE CHINESE UNIVERSITY OF HONG KONG, priority 2020, published 2024).
Read-outs that look alike come from different tables or passages of the source.

Experiments:
[1] = intraperitoneal (i.p.) injection
GLP-1R = target: T1, GLP-1R (Rattus norvegicus, UniProt P32301)
T1 construct: host or cells: living rats (8 weeks old), endogenous receptor
T1 sequence (P32301 22-463): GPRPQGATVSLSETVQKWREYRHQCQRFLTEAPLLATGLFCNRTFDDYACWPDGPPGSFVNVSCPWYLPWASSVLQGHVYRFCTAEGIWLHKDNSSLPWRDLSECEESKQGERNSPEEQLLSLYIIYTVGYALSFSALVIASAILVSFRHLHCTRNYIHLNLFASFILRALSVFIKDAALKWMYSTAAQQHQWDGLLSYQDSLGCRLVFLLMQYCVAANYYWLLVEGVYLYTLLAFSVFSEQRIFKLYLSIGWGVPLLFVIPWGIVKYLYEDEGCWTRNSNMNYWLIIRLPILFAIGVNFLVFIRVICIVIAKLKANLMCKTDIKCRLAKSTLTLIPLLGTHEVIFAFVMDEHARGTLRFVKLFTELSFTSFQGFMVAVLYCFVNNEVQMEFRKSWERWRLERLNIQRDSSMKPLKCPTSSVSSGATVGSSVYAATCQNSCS

Substance | hippocampus-associated reference memory performance [1] | immobility in the forced swim test [1] | associative and spatial learning (GLP-1R; intracerebroventricular (i.c.v) administration, 8 weeks old rats) | associative and spatial learning (GLP-1R; peripheral administration)
exendin-4 | improves | decreases immobility | – | –
[Ser(2)]exendin(1-9) | – | – | enhance associative and spatial learning | also active
